Data on 3 compounds can be found in patent publication US4760065A, “Trifluoromethyl substituted tetracyclic quinazolin-ones having tranquilizing activity” (priority 1986, dated 1988).

The test system of series [1] is rats. The series can be described thus: Sleep studies (sleep/wakefulness studies). Particulars: indicative of sedation. It is filed as in vivo. An excerpt:
(§1) While the racemates and individual optical isomers were indicated to have about the same level of activity in FBA tests specifically indicating tranquilizing activity, a marked difference was found between R-and S optical isomers in vivo in tests indicative of sedation. […] On the other hand, in the case of the S-isomer, the doses producing sedation effects were indicated to substantially overlap those at which tranquilizing activity was indicated. For example, in vivo tests in rats. The S-isomer of Example 9 hereinafter was indicated to have tranquilizing (anxiolytic) action in the dose range of about 2 to 15 milligrams per kilograms and mild sedation-related effects in the dose range of about 3-50 milligrams per kilogram. […] In evaluation of the optical isomers in rats to obtain the above indications, the Discrimination Test and the conflict segment (number of lickings) of Geller Conflict Test were used to evaluate tranquilizing activity. […] In the conflict test, the R-isomer was indicated to have a minimum effective dosage of 30 mg/kg. and the S-isomer a minimum effective dosage of 10 mg/kg. […] On the other hand, the S-isomer was indicated to have an ED50 between 40-50 mg/kg. in the Rotarod, Locomotion and Rearing Tests and a low minimum effective dose of 3 mg/kg. in the Sleep Studies.

In series [2] the test system is rats. Kind of series: In vivo tests in rats: dose ranges of tranquilizing action and sedation-related effects. As to conditions: about; for dose range of sedation-related effects: mild (S-isomer) or weak-to-mild (R-isomer) effects.
From the text: as §1

The nature of series [3]: Rotarod, Locomotion and Rearing Tests (indicative of sedation). The series is classed as in vivo. As to conditions: rat, locomotion, rearing tests, rats, one value stated for the three tests.
From the text: as §1

For series [4], the system named is rats. The series can be described thus: Discrimination Test. The series is classed as in vivo. As to conditions: Rattus norvegicus, tranquilizing activity.
From the text: as §1

Series [5] relates to rats. Kind of series: Geller Conflict test (conflict segment). It is filed as in vivo. Particulars: Rattus norvegicus; for minimal effective dose: conflict segment (number of lickings), read-out: minimum effective dosage in conflict test. On the procedure:
Speth et al., Life Science, 22: 859 (1978). Routine and non-substantive modifications of the Flunitrazepam Receptor Binding Assay that are evident from the following description are employed in such evaluation in which non-radioactive candidate compounds are tested for their ability to displace ^3 H-flunitrazepam binding from isolated calf brain benzodiazepine receptors. […] This suspension is made homogenous by homogenation with a Brinkmann Polytron using a rheostate setting of 8 for 10 seconds. Ten λ of ^3 H-flunitrazepam solution is diluted in 0.05M Tris buffer (pH 7.1 at 37° C.) to give a concentration of 10 nM (3.13×10^-6 mg/ml). This solution is stored frozen at -20° C., while the stock ^3 H-flunitrazepam solution in ethanol is kept refrigerated at +2° C. Periodically, the stock ethanolic ^3 H-flunitrazepam solution is examined by TLC for chemical purity. If the purity becomes <90%, the stock solution is repurified or new high purity ^3 H-flunitrazepam is obtained and the impure ^3 H-flunitrazepam discarded. A 0.1 ml portion of 10 nM ^3 H-flunitrazepam "working" solution is added to 12×75 mm borosilicate disposable test tube along with 0.1 ml of freshly prepared 10% ethanol solution. This is the control tube for measuring total binding. Non-specific binding is determined by the addition of 2×10^-5 diazepam (in 10% ethanol) to other tubes in the place of 0.1 ml 10% ethanol. The specific binding is determined in the final results by subtraction of the non-specific binding from the total binding. […] Three mg of each compound are placed in 18×150 mm borosilicate disposable test tubes. […] The ^3 H-flunitrazepam trapped on the filters is counted by liquid scintillation counting on a Beckman LS 8000 after the filters are rapidly shaken for 45 minutes in the scintillation vials with 10 ml of scintillation cocktail. Results of compounds screened are calculated by the on-line data reduction system in the Beckman LS 8000, and are expressed as a percent specifically bound compared to control. […]

The test system of series [6] is monkeys, rats, cats, mice. The series can be described thus: Other standard CNS depressant tests (sleep studies, spinal reflex test, chemically induced convulsions test, Dunham rotarod test, variable interval segment of Geller Conflict test). Particulars: at the doses useful as minor tranquilizers, sleep studies in monkeys and rats. It is filed as in vivo.
Series [7] deals with calf brain benzodiazepine receptors (3H-Flunitrazepam binding, calf brain cortex). The series can be described thus: Flunitrazepam Receptor Binding Assay, Chang et al. modification (FBA TEST No. 2). As to conditions: read-out: IC50 in FBA test (inhibition of specific binding of 3H-Flunitrazepam). On the procedure: Substantially similar results are obtainable in a Flunitrazepam Receptor Binding Assay (FBA) as described by Chang et. al., Eur. J. Pharmacol., 48, 213 (1978): when carried out with the non-substantive modifications evident from the following description (hereinafter FBA TEST No. (2): Fresh calf brain cortex is homogenized in a 19 fold volume of Tris-HCl buffer pH 7.4, using a Brinkman Polytron PT 20 and centrifuged at 50'000 g for 10 min. The pellets are frozen at -20° C. and resuspended in a 400 fold volume of Tris-buffer pH 7.4 before use for the binding assay. The assay mixtures consist of 1.8 ml of homogenate (corresponding to 4.5 mg of original tissue), 0.1 ml [^3 H]-Flunitrazepam (final concentration 1.5 nM), and 0.1 ml of buffer for determination of total binding or 0.1 ml of unlabelled Flunitrazepam (final concentration 1 μM) for determination of nonspecific binding, respectively. To assess the potency of various drugs in inhibiting specific binding, drugs are added (instead of buffer) to give 5 to 9 different concentrations between 1 nM and 10 μM, each in duplicate. After incubation for 15 min at 0° C., the assay mixtures are rapidly filtered through Whatman GF/B filters and washed twice with 5 ml of ice cold Tris-buffer. The filters are counted in Rialuma on a LKB Rach-Beta Liquid Scintillation Counter. […]

Take `O=c1c2cc(C(F)(F)F)ccc2nc2n1C[C@@H]1CCCCN21` [Example 8, (+)-10aS-7,8,9,10,10a,11-Hexahydro-2-trifluoromethyl-13H-pyrido[1,'2':3,4]imidazo[2,1b]quinazolin-13-one]: the “minimum effective dose in sleep studies (sleep/wakefulness studies)” value in series [1] is 3 mg/kg. Further, the “dose range of sedation-related effects” value in series [2] is 3-50 milligrams per kilogram. Besides, the values for the 50% effective dose (ED50) in series [3] and in series [4] were 40 to 50 mg/kg and 2.6 mg/kg, respectively. For the same compound, in series [5], the minimal effective dose was found to be 10 mg/kg.

For the compound `O=c1c2cc(C(F)(F)F)ccc2nc2n1CC1CCCCN21` (stereo not drawn) [Example 1, Trans(e,e)-( )-2-trifluoromethyl-7,8,9,10,10a,11-Hexahydro-13H-pyrido[1',2':3,4]-imidazo[2,1-b]-quinazolin-13-one], the “activity in other standard CNS depressant tests” value in series [6] was “only mildly active or essentially inactive”. Also, in series [7], the half-maximal inhibitory concentration (IC50) was determined as 6.5 nM. Moreover, the ED50 in series [5] (po, P.O.) turned out to be 15 mg/kg.

Take `O=c1c2cc(C(F)(F)F)ccc2nc2n1C[C@H]1CCCCN21` [Example 5, (-)-10aR-7,8,9,10,10a,11-hexahydro-2-trifluoromethyl-13H-pyrido[1,'2':3,4]imidazo[2,1b]quinazolin-13-one]: the “minimum effective dose in sleep studies (sleep/wakefulness studies)” value in series [1] was determined as 60 mg/kg. For the same compound, in series [2], the “dose range of tranquilizing (anxiolytic) action” value is given as 4-40 milligrams per kilogram and the “dose range of sedation-related effects” value is on record as 60-120 milligrams per kilogram. The 50% effective dose (ED50) in series [3] was > 120 mg/kg. In series [4], this compound gave an ED50 of 4.2 mg/kg. Besides, the minimal effective dose in series [5] is 30 mg/kg.
